These results are taken from patent publication US20240091183A1 (Syros Pharmaceuticals, Inc., priority 2021, published 2024).

A short description of this series: population PK model and simulations of flat versus BSA-based dosing of tamibarotene. On the set-up: species or system human. Particulars: population PK analysis of prior study, 6 mg/m2/day in 2 divided doses. Here is the method:
The dose and regimen used in a prior study (6 mg/m^2/day in 2 divided doses) were based on the dose and regimen approved in Japan for the treatment of APL. […] Based on this analysis, the fixed dosing regimens described herein, including the 6 mg BID flat dosing regimen, are expected to provide similar PK exposures compared to the 6 mg/m^2/day (in 2 divided doses) regimen used in the prior study.
A population PK model was developed using patient characteristics, and we assessed the impact of weight on drug clearance. Simulations were conducted to assess the performance of “flat” versus BSA-based dosing. Simulated AUC (area-under-the-curve) from the model was used to establish relationship of exposure with efficacy and safety; we analyzed exposure and achievement of CR/CRi and exposure with adverse events equal to or greater than those of grade 3.

Take Tamibarotene: the “association of body size with clearance” value was “not significantly associated”.
